Values of other authors in US12622967B2, “Molecules, formulations, and methods for nutritional support of athletes, patients, and others” (Today, Inc., priority 2022, dated 2026).

Experiments:
[1] = high intensity exercise
[2] = systemic infusion to target 4 mM blood [lactate]; human experimentation under way, personal communication

| SMILES | time to be oxidized to energy [1] | effect on cerebral LPR (lactate/pyruvate ratio) [2] |
| --- | --- | --- |
| CC(O)C(=O)O (centres unmarked) [lactate] | less than 5 min |  |
| CC(O)C(=O)[O-].[Na+] (centres unmarked) [sodium lactate] |  | decreases cerebral LPR |
